Like-named read-outs stand apart in the source and are kept apart here.
Key:
powdery mildew fungus [1] = assay type: in vivo, tomato; details: 80 mg/L, watered twice; 2 weeks after infection
Procedure: Tomato plants, at the stage of the first pair of developed true leaves, were watered twice with a solution of substance 1-32 at a concentration of 80 mg/L, at a weekly interval. The control was tomato plants watered only with water. […] The suspension was prepared from culture on solid medium. Protection against biotic stress was evaluated by comparing the area of leaves affected by infection.

[2] = tested on: Pseudomonas syringae pv. Tomato (Pst); details: watered twice, Pst 10^5, 2 weeks after infection
Procedure: Tobacco plants at the stage of 3 developed leaves were watered twice, at a weekly interval, with a solution of test substances 1-11 at concentrations of 10, 40, 80 mg/L. The control was tobacco plants watered with water only. One week after the second treatment, a suspension of Pst bacteria at a concentration of 10^5 was spotted into the leaves using an insulin syringe (without a needle). The suspension was prepared from a two-day culture of Pst on solid medium. Protection against biotic stress was evaluated by the proliferation of bacteria in the leaves at the insertion site and the formation of a necrotic spot, compared to the control.
We proceeded as in Example 30, with the effectiveness of protection against biotic stress tested against bacterial cell concentrations raised to about 10^6.

TMV [3] = assay: Protection of tobacco against TMV infected 3 weeks after the last treatment (Example 27); assay type: in vivo; details: infected with TMV 3 weeks after the last treatment
Procedure: They proceeded as in Example 24, using substances 1-4 at concentrations of 10, 40 and 80 mg/L for treatment, with treated and control plants divided into 3 batches and their leaves infected with the virus 1, 2 and 3 weeks after the last treatment, respectively. […] A similar effect occurred with spraying.

Brome Mosaic Virus (BMV) = assay: Protection of barley against Brome Mosaic Virus infection by watering (Examples 28 and 29); assay type: in vivo; details: 80 mg/L, watered twice; 2 weeks after infection
TMV [4] = assay: Protection of tobacco against TMV, single spray, comparison with BION (Example 26); assay type: in vivo, Nicotiana tabacum cv. Xanthi; details: sprayed once, infected a week later
Procedure: Tobacco plants (Nicotiana tabacum) cv. Xanthi at the stage of three developed leaves were sprayed once with solutions of substance 1-5 or BION™ at concentrations of 10, 40, 80 mg/L. A week later, they were mechanically infected with TMV by rubbing the leaves with a square soaked in a suspension of purified virus, with a concentration of about 2 μg/ml. The level of protection against the effects of biotic stress was evaluated by comparing the number of necrotic spots caused by TMV on the leaves of plants treated with substances 1-5 and BION™ and control plants.
A reduction in the number of necrotic spots indicates protection from the effects of the biotic agent on the plant.

powdery mildew fungus [5] = assay: Protection of tomato against powdery mildew by spraying (Example 35); assay type: in vivo, Lycopersicon Esculentum Mill tomato; details: 40 mg/l, sprayed twice; 2 weeks after pathogen inoculation
Procedure: […] The control was tomato plants watered only with water. […] The suspension was prepared from culture on solid medium. Protection against biotic stress was evaluated by comparing the area of leaves affected by infection.
Proceeded in the way as described in Example 34, with the difference that plants were sprayed and not watered.

`CCOc1c(Cl)cccc1C(=O)[O-].C[N+](C)(C)CCO` [choline 2-ethoxy-3-chlorobenzoate] was tested, and the “% reduction in necrotic spots compared to control” value (from here on “% reduction in necrotic spots”) (powdery mildew fungus [1]) was 43%, the “% reduction in necrotic spots” value ([2]; 10 mg/L) was 24% and the “% reduction in necrotic spots” value ([2]; 40 mg/L) was 33%. The “% reduction in necrotic spots” value ([2]; 80 mg/L) was 39%.

With “ethyl(trimethyl)ammonium 3-chlorosalicylate” the “% reduction in necrotic spots” value (powdery mildew fungus [1]) was 63%, the “% reduction in necrotic spots” value (TMV [3]; 10 mg/L) was 25% and the “% reduction in necrotic spots” value (TMV [3]; 40 mg/L) was 46%. For the same compound, the “% reduction in necrotic spots” value (TMV [3]; 80 mg/L) was 65%.

With `C[N+](C)(C)CCO.O=C([O-])c1cc(Br)ccc1O` [choline 5-bromosalicylate] the “% reduction in necrotic spots” value (powdery mildew fungus [1]) was 79% and the “% reduction in necrotic spots” value (Brome Mosaic Virus (BMV)) was 69%.

In the case of “2-methoxyethyl(trimethyl)ammonium 3-chlorosalicylate”, the “% reduction in necrotic spots” value (powdery mildew fungus [1]) is reported as 67%, the “% reduction in necrotic spots” value (TMV [3]; 10 mg/L) is reported as 15% and the “% reduction in necrotic spots” value (TMV [3]; 40 mg/L) is reported as 26%. The “% reduction in necrotic spots” value (TMV [3]; 80 mg/L) was 37%.

In the case of `C[N+](C)(C)CCO.O=C([O-])c1cc(Br)cc(Br)c1O`, the “% reduction in necrotic spots” value (powdery mildew fungus [1]) is reported as 72% and the “% reduction in necrotic spots” value (Brome Mosaic Virus (BMV)) is reported as 38%.

For `C[N+](C)(C)CCO.O=C([O-])c1cc(I)ccc1O` [choline 5-iodosalicylate], the “% reduction in necrotic spots” value (powdery mildew fungus [1]) was 65% and the “% reduction in necrotic spots” value (Brome Mosaic Virus (BMV)) was 35%.

For “2-hydroxyethyl(tridecyl)ammonium 3-chlorosalicylate”, the “% reduction in necrotic spots” value (powdery mildew fungus [1]) was 64%, the “% reduction in necrotic spots” value (TMV [4]; 10 mg/L) was 25% and the “% reduction in necrotic spots” value (TMV [4]; 40 mg/L) was 46%. For the same compound, the “% reduction in necrotic spots” value (TMV [4]; 80 mg/L) was 65%.

With `CC(=O)Oc1c(Cl)cccc1C(=O)[O-].C[N+](C)(C)CCO` [choline 2-acetoxy-3-chlorobenzoate] the “% reduction in necrotic spots” value (powdery mildew fungus [1]) was 45%, the “% reduction in necrotic spots” value ([2]; 10 mg/L) was greater than 10% and the “% reduction in necrotic spots” value ([2]; 40 mg/L) was 28%. The “% reduction in necrotic spots” value ([2]; 80 mg/L) was 35%.

With `C[N+](C)(C)CCO.O=C([O-])c1cc(F)ccc1O` [choline 5-fluorosalicylate] the “% reduction in necrotic spots” value (powdery mildew fungus [1]) was 54% and the “% reduction in necrotic spots” value (Brome Mosaic Virus (BMV)) was 88%.

`C[N+](C)(C)CCO.O=C([O-])c1c(Br)ccc(Cl)c1O` [choline 3-chloro-6-bromosalicylate] was tested, and the “Reduction in necrotic spots (white patches) compared to control” value (powdery mildew fungus [5]) was 49%, the “% reduction in necrotic spots” value ([2]; 10 mg/L) was 24% and the “% reduction in necrotic spots” value ([2]; 40 mg/L) was 29%. The “% reduction in necrotic spots” value ([2]; 80 mg/L) was 40%.

With `C[N+](C)(C)CCO.O=C([O-])c1cccc(Br)c1O` [choline 3-bromosalicylate] the “% reduction in necrotic spots” value (powdery mildew fungus [1]) was 72% and the “% reduction in necrotic spots” value (Brome Mosaic Virus (BMV)) was 21%.

`C[N+](C)(C)CCO.O=C([O-])c1c(F)ccc(Cl)c1O` [choline 3-chloro-6-fluorosalicylate] was tested, and the “Reduction in necrotic spots (white patches) compared to control” value (powdery mildew fungus [5]) was 45%, the “% reduction in necrotic spots” value ([2]; 10 mg/L) was 19% and the “% reduction in necrotic spots” value ([2]; 40 mg/L) was 28%. The “% reduction in necrotic spots” value ([2]; 80 mg/L) was 47%.

In the case of `CC(=O)Oc1ccccc1C(=O)[O-].C[N+](C)(C)CCO` [choline 2-acetoxybenzoate], the “% reduction in necrotic spots” value (powdery mildew fungus [1]) is reported as 52%, the “% reduction in necrotic spots” value ([2]; 10 mg/L) is reported as 25% and the “% reduction in necrotic spots” value ([2]; 40 mg/L) is reported as 29%. The “% reduction in necrotic spots” value ([2]; 80 mg/L) was 69%.

For “2-bromoethyl(trimethyl)ammonium 3-chlorosalicylate”, the “% reduction in necrotic spots” value (powdery mildew fungus [1]) was 54% and the “% reduction in necrotic spots” value (Brome Mosaic Virus (BMV)) was 95%.

With “2-hydroxyethyl(tridodecyl)ammonium 3-chlorosalicylate” the “% reduction in necrotic spots” value (powdery mildew fungus [1]) was 47%, the “% reduction in necrotic spots” value (TMV [4]; 10 mg/L) was 59% and the “% reduction in necrotic spots” value (TMV [4]; 40 mg/L) was 64%. The “% reduction in necrotic spots” value (TMV [4]; 80 mg/L) was 89%.

With `CCOc1ccccc1C(=O)[O-].C[N+](C)(C)CCO` [choline 2-ethoxybenzoate] the “% reduction in necrotic spots” value (powdery mildew fungus [1]) was 43%, the “% reduction in necrotic spots” value ([2]; 10 mg/L) was 56% and the “% reduction in necrotic spots” value ([2]; 40 mg/L) was 60%. For the same compound, the “% reduction in necrotic spots” value ([2]; 80 mg/L) was 82%.

In the case of “2-iodoethyl(trimethyl)ammonium 3-chlorosalicylate”, the “% reduction in necrotic spots” value (powdery mildew fungus [1]) is reported as 47% and the “% reduction in necrotic spots” value (Brome Mosaic Virus (BMV)) is reported as 64%.

For `C[N+](C)(C)CCO.O=C([O-])c1cc(F)cc(F)c1O`, the “% reduction in necrotic spots” value (powdery mildew fungus [1]) was 70% and the “% reduction in necrotic spots” value (Brome Mosaic Virus (BMV)) was 27%.

In the case of `C[N+](C)(C)CCO.O=C([O-])c1c(I)ccc(Cl)c1O` [choline 3-chloro-6-iodosalicylate], the “Reduction in necrotic spots (white patches) compared to control” value (powdery mildew fungus [5]) is reported as 47%.

For “2-fluoroethyl(trimethyl)ammonium 3-chlorosalicylate”, the “% reduction in necrotic spots” value (powdery mildew fungus [1]) was 36% and the “% reduction in necrotic spots” value (Brome Mosaic Virus (BMV)) was 56%.

“2-ethoxyethyl(trimethyl)ammonium 3-chlorosalicylate” was tested, and the “% reduction in necrotic spots” value (powdery mildew fungus [1]) was 55%, the “% reduction in necrotic spots” value (TMV [3]; 10 mg/L) was 26% and the “% reduction in necrotic spots” value (TMV [3]; 40 mg/L) was 26%. The “% reduction in necrotic spots” value (TMV [3]; 80 mg/L) was 30%.

With “2-chloroethyl(trimethyl)ammonium 3-chlorosalicylate” the “% reduction in necrotic spots” value (powdery mildew fungus [1]) was 57% and the “% reduction in necrotic spots” value (Brome Mosaic Virus (BMV)) was 36%.

For `C[N+](C)(C)CCO.O=C([O-])c1cc(I)cc(I)c1O`, the “% reduction in necrotic spots” value (powdery mildew fungus [1]) was 78% and the “% reduction in necrotic spots” value (Brome Mosaic Virus (BMV)) was 46%.

In the case of “2-hydroxyethyl(triethyl)ammonium 3-chlorosalicylate”, the “% reduction in necrotic spots” value (powdery mildew fungus [1]) is reported as 58%, the “% reduction in necrotic spots” value (TMV [4]; 10 mg/L) is reported as 15% and the “% reduction in necrotic spots” value (TMV [4]; 40 mg/L) is reported as 26%. The “% reduction in necrotic spots” value (TMV [4]; 80 mg/L) was 37%.

`C[N+](C)(C)CCO.O=C([O-])c1cccc(I)c1O` [choline 3-iodosalicylate] was tested, and the “% reduction in necrotic spots” value (powdery mildew fungus [1]) was 69% and the “% reduction in necrotic spots” value (Brome Mosaic Virus (BMV)) was 77%.

For “2-hydroxyethyl(tributyl)ammonium 3-chlorosalicylate”, the “% reduction in necrotic spots” value (powdery mildew fungus [1]) was 66%, the “% reduction in necrotic spots” value (TMV [4]; 10 mg/L) was 26% and the “% reduction in necrotic spots” value (TMV [4]; 40 mg/L) was 26%. For the same compound, the “% reduction in necrotic spots” value (TMV [4]; 80 mg/L) was 30%.

For `C[N+](C)(C)CCO.O=C([O-])c1cccc(F)c1O` [choline 3-fluorosalicylate], the “% reduction in necrotic spots” value (powdery mildew fungus [1]) was 52% and the “% reduction in necrotic spots” value (Brome Mosaic Virus (BMV)) was 56%.

`COc1c(Cl)cccc1C(=O)[O-].C[N+](C)(C)CCO` [choline 2-methoxy-3-chlorobenzoate] was tested, and the “% reduction in necrotic spots” value (powdery mildew fungus [1]) was 49%, the “% reduction in necrotic spots” value ([2]; 10 mg/L) was greater than 10% and the “% reduction in necrotic spots” value ([2]; 40 mg/L) was 25%. The “% reduction in necrotic spots” value ([2]; 80 mg/L) was 39%.

`COc1ccccc1C(=O)[O-].C[N+](C)(C)CCO` [choline 2-methoxybenzoate] was tested, and the “% reduction in necrotic spots” value (powdery mildew fungus [1]) was 44%, the “% reduction in necrotic spots” value ([2]; 10 mg/L) was 54% and the “% reduction in necrotic spots” value ([2]; 40 mg/L) was 68%. For the same compound, the “% reduction in necrotic spots” value ([2]; 80 mg/L) was 67%.

Reference: patent US20260041093A1, “Ionic Derivatives Of Aromatic Carboxylic Acid For Use As Plant Stimulants, Method For Stimulating Plants And Use Of These Derivatives For Manufacturing Compositions For Stimulating Plants” (FUNDACJA UNIWERSYTETU IM. ADAMA MICKIEWICZA W POZNANIU, priority 2022, published 2026)
